Source: patent publication US20100179158A1, “INHIBITORS OF CYCLIC AMP PHOSPHODIESTERASES” (priority 2007, published 2010)
Blank lines part the entries; values can stand above or below the molecule they belong to.

Tests used:
[1] = target: T1, PDE2A (Mus musculus, UniProt Q922S4); test: cAMP assay in yeast strain LWP371 expressing PDE2A; assay type: cell-based, murine; details: 20 μM EHNA as compared to 200 μM, one-hour time point
T1 construct: targets used in the assays are full-length proteins (as opposed to simply the catalytic domain); expressed in transfected cells; host or cells: Schizosaccharomyces pombe strains LWP367 and LWP371
T1 sequence (Q922S4 1-939): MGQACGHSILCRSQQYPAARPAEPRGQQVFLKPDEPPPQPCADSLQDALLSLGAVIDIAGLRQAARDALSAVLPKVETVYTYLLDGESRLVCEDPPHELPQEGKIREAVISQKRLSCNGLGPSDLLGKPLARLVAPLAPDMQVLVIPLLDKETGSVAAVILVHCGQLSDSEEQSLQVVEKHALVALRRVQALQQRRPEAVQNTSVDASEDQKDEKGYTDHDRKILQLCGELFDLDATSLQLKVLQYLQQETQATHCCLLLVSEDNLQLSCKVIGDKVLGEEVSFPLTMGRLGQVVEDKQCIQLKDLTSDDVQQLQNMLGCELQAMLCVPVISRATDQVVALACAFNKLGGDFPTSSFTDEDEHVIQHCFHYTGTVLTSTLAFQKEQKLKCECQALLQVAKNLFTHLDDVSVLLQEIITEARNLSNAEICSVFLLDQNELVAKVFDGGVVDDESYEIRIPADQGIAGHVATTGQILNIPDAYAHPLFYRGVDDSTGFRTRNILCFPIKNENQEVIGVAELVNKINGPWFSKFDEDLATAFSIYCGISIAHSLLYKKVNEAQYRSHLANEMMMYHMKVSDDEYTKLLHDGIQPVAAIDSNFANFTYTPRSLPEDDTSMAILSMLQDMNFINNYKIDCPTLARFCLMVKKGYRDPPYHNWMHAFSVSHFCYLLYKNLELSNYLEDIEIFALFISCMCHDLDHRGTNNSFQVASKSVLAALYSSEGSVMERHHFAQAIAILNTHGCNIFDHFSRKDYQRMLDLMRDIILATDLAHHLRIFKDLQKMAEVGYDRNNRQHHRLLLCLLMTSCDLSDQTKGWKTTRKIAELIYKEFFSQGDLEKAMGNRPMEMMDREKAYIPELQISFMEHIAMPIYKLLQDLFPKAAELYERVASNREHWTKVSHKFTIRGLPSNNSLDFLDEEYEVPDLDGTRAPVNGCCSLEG
Description: (§1) β-galactosidase assays and characterization of 5FOA-sensitivity were carried out as previously described^10. cAMP assays were performed on exponential phase cells grown in EMM complete medium (3% glucose), using the Assay Designs cAMP EIA kit, according to manufacturer's instructions (Assay Designs, Ann arbor, MI).
(§2) Thus, PDE inhibition can be indirectly quantitated by measuring the effect of a compound on cAMP levels in target yeast strains.

[2] = target: T1, PDE2A; test: fbp1-lacZ β-galactosidase assay, PDE2A strain LWP367; assay type: cell-based, murine; details: specific activity per milligram of soluble protein, average ± SD
Description: as §1
(§3) The effect of known PDE inhibitors on the expression of the fbp1-lacZ fusion in murine PDE-expressing strains was tested. […] For Table 4 β-galactosidase activity was determined from 3 to 4 independent exponential phase cultures. The average±SD represents specific activity per milligram of soluble protein.

[3] = target: T2, PDE7A (Homo sapiens, UniProt Q13946); test: cAMP assay in yeast strain expressing PDE7A; assay type: cell-based
T2 construct: targets used in the assays are full-length proteins (as opposed to simply the catalytic domain); expressed in transfected cells; host or cells: Schizosaccharomyces pombe, gene integrated at the cgs2 locus
T2 sequence (Q13946 whole entry, the tested form may be a part): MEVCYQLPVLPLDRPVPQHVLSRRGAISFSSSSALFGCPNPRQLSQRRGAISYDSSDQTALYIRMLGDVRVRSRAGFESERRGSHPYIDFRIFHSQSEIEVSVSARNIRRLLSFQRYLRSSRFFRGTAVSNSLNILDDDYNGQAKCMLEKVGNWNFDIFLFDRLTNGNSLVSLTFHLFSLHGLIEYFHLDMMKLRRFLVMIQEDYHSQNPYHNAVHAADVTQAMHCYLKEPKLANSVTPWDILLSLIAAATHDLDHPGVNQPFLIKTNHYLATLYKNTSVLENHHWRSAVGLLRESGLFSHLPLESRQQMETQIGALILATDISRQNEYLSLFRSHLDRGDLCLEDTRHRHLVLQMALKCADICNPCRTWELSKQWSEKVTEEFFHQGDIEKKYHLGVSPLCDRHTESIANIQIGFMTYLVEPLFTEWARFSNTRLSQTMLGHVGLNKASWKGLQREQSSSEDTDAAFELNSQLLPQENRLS

[4] = tested on: PDE4A, PDE4B, PDE4D, PDE7A; test: Overall PDE inhibitor profile from the yeast assays (table footnotes, summary); assay type: cell-based
From the text: PDE inhibitors were identified using methods described herein, such as high throughput drug screens on genetically engineered fission yeast strains that express drug targets (e.g., PDE4A and/or PDE4B, which are anti-inflammatory targets). PDE inhibitors were identified based on their ability to stimulate growth and compounds were identified because they were effective in live cells. In addition, targets used in the assays are full-length proteins (as opposed to simply the catalytic domain) and the assay used included a built-in toxicity test, permeability test and stability test. The inhibitors identified display a very high degree of target specificity. Compounds identified include inhibitors that act on two of three PDE4 family enzymes and inhibitors that act on combinations of PDE4 and PDE7 strains. […] Limited inhibition of PDE4D by a PDE inhibitor is desirable, in view of the fact that inhibition of PDE4D causes emesis and cardiac arrhythmias. Subtype specificity was confirmed by means of cAMP assays.
Cells were pregrown in EMM medium [MP Biomedicals (Solon, OH), 3% glucose, filter-sterilized to avoid carmelization, which would introduce variability into the optical density of the medium] containing from 0 mM to 2.5 mM cAMP (or either 0.5 mM or 1.0 mM cGMP). This was to repress expression of the fbp1-ura4 reporter prior to exposure of cells to 5FOA medium. Cells were grown at 30° C. to exponential phase (approximately 10^7 cells/ml). Cells were collected by centrifugation and resuspended in 5FOA medium, and 25 μl were transferred to 384-well microtiter dishes (untreated, with flat clear bottoms) that had been pre-filled with 25 μl 5FOA medium and pre-pinned with 100 nl of compounds (stock solutions were generally 10 mM). Starting cell concentrations ranged from 0.5×10^5 to 4×10^5 cells/ml depending on the screening strain. […] Other positive control dishes contained 5 mM cAMP in the 5FOA medium for PDEs that lack appropriate control compounds. Cultures were grown for 48 hours at 30° C., sealed in an airtight container with moist paper towels to prevent evaporation. Optical densities (OD600) of cultures were measured using a microplate reader. Bioinformatic analysis of the results to determine composite Z scores was performed as previously described (1, 3).

[5] = target: T3, PDE8A (Mus musculus, UniProt O88502); test: cAMP assay in yeast strain CHP1141 expressing PDE8A; assay type: cell-based, murine; details: rolipram 20 and 200 μM, one-hour time point
T3 construct: targets used in the assays are full-length proteins (as opposed to simply the catalytic domain); expressed in transfected cells; host or cells: Schizosaccharomyces pombe strains DDP13 and CHP1141
T3 sequence (O88502 1-823): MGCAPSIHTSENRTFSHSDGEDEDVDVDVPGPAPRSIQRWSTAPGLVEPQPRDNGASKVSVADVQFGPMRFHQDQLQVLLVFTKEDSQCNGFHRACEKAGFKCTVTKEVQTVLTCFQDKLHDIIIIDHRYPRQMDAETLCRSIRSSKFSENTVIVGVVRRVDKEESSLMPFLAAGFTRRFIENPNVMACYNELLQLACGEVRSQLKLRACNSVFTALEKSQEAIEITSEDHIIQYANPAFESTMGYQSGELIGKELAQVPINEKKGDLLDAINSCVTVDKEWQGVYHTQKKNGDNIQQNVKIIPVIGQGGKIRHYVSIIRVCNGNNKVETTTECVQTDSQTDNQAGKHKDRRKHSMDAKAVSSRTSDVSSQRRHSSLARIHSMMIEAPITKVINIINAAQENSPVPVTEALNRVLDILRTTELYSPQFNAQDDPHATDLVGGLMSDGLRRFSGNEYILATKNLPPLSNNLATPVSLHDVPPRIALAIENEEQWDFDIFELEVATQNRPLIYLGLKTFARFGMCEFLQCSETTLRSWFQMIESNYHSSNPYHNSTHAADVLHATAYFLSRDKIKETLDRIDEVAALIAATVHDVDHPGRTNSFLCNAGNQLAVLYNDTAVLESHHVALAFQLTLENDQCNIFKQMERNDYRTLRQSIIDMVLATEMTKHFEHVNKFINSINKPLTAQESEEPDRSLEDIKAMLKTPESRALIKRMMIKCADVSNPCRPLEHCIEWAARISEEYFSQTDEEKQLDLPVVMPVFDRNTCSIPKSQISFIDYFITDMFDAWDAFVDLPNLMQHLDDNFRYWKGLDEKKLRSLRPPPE
Description: as §1, §2

[6] = target: T3, PDE8A; test: fbp1-lacZ β-galactosidase assay, PDE8A strain DDP13; assay type: cell-based, murine; details: specific activity per milligram of soluble protein, average ± SD
Description: as §1, §3

[7] = target: T4, Cgs2 (Schizosaccharomyces pombe, UniProt P36599); test: fbp1-lacZ β-galactosidase assay, Cgs2 strain CHP861; assay type: cell-based; details: specific activity per milligram of soluble protein, average ± SD
T4 construct: the wild-type S. pombe Cgs2^+ PDE; endogenous in cells; host or cells: Schizosaccharomyces pombe strain CHP861
T4 sequence (P36599 1-346): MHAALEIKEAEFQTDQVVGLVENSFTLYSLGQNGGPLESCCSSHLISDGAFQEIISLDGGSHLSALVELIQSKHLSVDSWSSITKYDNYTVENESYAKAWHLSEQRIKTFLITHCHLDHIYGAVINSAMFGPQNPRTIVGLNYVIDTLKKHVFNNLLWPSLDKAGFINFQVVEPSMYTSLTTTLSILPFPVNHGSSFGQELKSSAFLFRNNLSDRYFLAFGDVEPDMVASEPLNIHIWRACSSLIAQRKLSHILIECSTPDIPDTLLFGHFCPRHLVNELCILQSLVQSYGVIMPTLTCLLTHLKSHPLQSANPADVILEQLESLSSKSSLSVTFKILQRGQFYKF
Description: as §1, §3

[8] = tested on: PDE2A, PDE4A, PDE4B, Cgs2; test: High throughput 5FOA growth screens of bioactive libraries; assay type: cell-based, murine; Schizosaccharomyces pombe; details: average 20 μM; composite Z score cut-off ≧8.53
Description: High throughput drug screens were carried out at the Broad Institute's Chemical Biology Program screening facility (Broad Institute, Cambridge, Mass.). Depending upon the strain, cultures were pregrown to exponential phase in EMM complete medium containing from 0.5 to 2.5 mM cAMP to repress fbp1-ura4 transcription. […] Starting cell concentrations ranged from 0.5×10^5 to 4×10^5 cells/ml depending on the screening strain. […] Other positive control dishes contained 5 mM cAMP in the 5FOA medium. Cultures were grown for 48 hours at 30° C., sealed in an airtight container with moist paper towels to prevent evaporation. Optical densities (OD600) of cultures were measured using a microplate reader. Bioinformatic analysis of the results to determine composite Z scores was performed as previously described^30, 31.

PDE2A inhibition judged by cAMP levels [1]: partial inhibition
β-galactosidase activity, PDE2A strain ([2]; 5 μM EHNA): 473 ± 19
β-galactosidase activity, PDE2A strain ([2]; 20 μM EHNA): 197 ± 51
β-galactosidase activity, PDE2A strain ([2]; 200 μM EHNA): 45 ± 3
Structure (SMILES): CCCCCC[C@@H]([C@@H](C)O)n1cnc2c(N)ncnc21 (racemic) [EHNA, erythro-9-(2-hydroxy-3-nonyl)adenine]

cAMP Response (%BRL50481), PDE 7A [3]: 89.00 %BRL50481
Structure (SMILES): COc1ccc2c(c1)C1(C)CCC(=O)CC1CC2 (single isomer, unassigned) [Compound 11]
PDE inhibitor profile in words (table footnote / summary) [4]: (3) Strong PDE7A inhibitor

cAMP levels in PDE8A strain on treatment [5]: completely insensitive
β-galactosidase activity, PDE8A strain ([6]; 50 μM Rolipram): 253 ± 46
β-galactosidase activity, PDE8A strain ([6]; 100 μM Rolipram): 237 ± 67
β-galactosidase activity, Cgs2 strain ([7]; 50 μM Rolipram): 1807 ± 446
β-galactosidase activity, Cgs2 strain ([7]; 100 μM Rolipram): 1784 ± 429
Structure (SMILES): COc1ccc(C2CNC(=O)C2)cc1OC1CCCC1 (stereo not drawn) [Rolipram, rolipram]
Result in high throughput screens for 5FOA-resistant growth [8]: only affected the PDE4A- and PDE4B-expressing strains
